Like-named read-outs stand apart in the source and are kept apart here.
Key:
Format in all cases: biochemical
Settings in all cases: 25° C.
[1] = biological target: T1, Agrobacterium tumefaciens anthranilate synthase (AgroAS), wild type, SEQ ID NO: 4 (Agrobacterium fabrum, UniProt A9CI26); assay: Anthranilate synthase assay, anthranilate formation by absorbance at 320 nm
T1 construct: no tag mentioned
Description: (§1) Agrobacterium tumefaciens AS wild type and mutant enzymes were expressed in E. coli as described in Example 1. The purification of all the Agrobacterium tumefaciens AS enzymes, including wild type and mutants thereof, was performed at 4° C. The cells (approximate wet weight of 1 g) were suspended in 20 ml of purification buffer (50 mM potassium phosphate, pH 7.3, 10 mM MgCl2, 10 mM 2-mercaptoethanol, 10% glycerol) and lysed by ultrasonication (Branson sonifier Cell Disruptor, W185). Supernatant was collected after centrifugation of the homogenate at 20,000×g for 15 min. The supernatant was subjected to ammonium sulfate fractionation (30 to 65% saturation). The precipitate was collected after centrifugation at 20,000×g for 15 min and dissolved in 3 ml of the purification buffer and then loaded as a whole on an Econo-Pac 10DG desalting column, pre-equilibrated with the same buffer. Fractions containing the enzyme were detected by the developed assay and pooled. The pooled enzyme (4.3 mls) was loaded on a 10 ml DEAF Sephacel (Pharmacia Biotech) column (1.5×7.5 cm) equilibrated with the same buffer. The column was washed with 30 ml of the purification buffer and the enzyme was eluted with 30 ml of 50 mM NaCl in the same buffer. Fractions containing high AS activity were pooled and precipitated by 65% ammonium sulfate saturation and isolated and desalted as above. Fractions containing the enzyme were pooled and stored at −80° C.
The standard assay for Agrobacterium tumefaciens AS was performed at 25° C. in an assay buffer containing 100 mM potassium phosphate, pH 7.0, 10 mM MgCl2, 1 mM dithiothreitol, 200 μM chorismate and 10 mM L-glutamine. The reaction was started by adding 30 μl of enzyme to the reaction mixture and mixing. The formation of anthranilate was directly monitored by the absorbance increase at 320 m for 3 minutes. Initial rate of reaction was calculated as unit absorbance increase per second based on the slope of the absorbance change over the reaction time. Km for chorismate (Km^Cho) was determined in the total volume of 1 ml assay buffer containing 100 mM potassium phosphate, pH 7.0, 10 mM MgCl2, 1 mM dithiothreitol with 10 mM L-glutamine and varying the concentration of chorismate between 2.5-100 μM chorismate. The Km for glutamine (Km^Gln) was determined in the total volume of 1 ml assay buffer containing 100 mM potassium phosphate, pH 7.0, 10 mM MgCl2, 1 mM dithiothreitol with 200 μM chorismate and varying the concentration of L-glutamine between 0.1-2 mM L-glutamine. […] Kinetic parameters and IC50 of AS were calculated after fitting the data to a non-linear regression program (GraFit).

[2] = biological target: T2, Agrobacterium tumefaciens anthranilate synthase V48F mutant, SEQ ID NO: 58 (Agrobacterium fabrum, UniProt A9CI26, V48F); assay: Anthranilate synthase assay, V48F mutant
T2 construct: no tag mentioned
Description: (§2) Site directed mutagenesis was used to generate ten single amino acid substitutions six sites. The mutations were introduced into the Agrobacterium tumefaciens AS in pMON34705 using the QuikChange™ Site-Directed Mutagenesis Kit (Stratagene). The primers used for site directed mutagenesis were SEQ ID NOs: 9-42 (FIG. 7; F=forward, R=reverse). Each primer sequence is specific for alteration of the nucleic acid at a specific location in the sequence and thus changing the encoded codon to code for a new amino acid. For example, S51C designates a change from serine to cysteine at amino acid position 51 in the Agrobacterium tumefaciens AS peptide sequence.
(§3) Following mutagenesis the sequence of the entire gene was reconfirmed and the variants expressed and purified from E. coli as described below for the wild type enzyme. The resultant plasmids comprising mutant Agrobacterium tumefaciens AS are suitably cloned into a plasmid for overproduction of protein using the T7 expression system as described in Example 1.
as §1, with “The column was washed with 30 ml of the purification buffer and the enzyme was eluted with 30 ml of 50 mM NaCl in the same buffer. Fractions containing high AS activity were pooled and precipitated by 65% ammonium sulfate saturation and isolated and desalted as above. Fractions containing the enzyme were pooled and stored at −80° C.” left out
(§4) The standard assay for Agrobacterium tumefaciens AS was performed at 25° C. in an assay buffer containing 100 mM potassium phosphate, pH 7.0, 10 mM MgCl2, 1 mM dithiothreitol, 200 μM chorismate and 10 mM L-glutamine. […] The formation of anthranilate was directly monitored by the absorbance increase at 320 m for 3 minutes. Initial rate of reaction was calculated as unit absorbance increase per second based on the slope of the absorbance change over the reaction time. […] Kinetic parameters and IC50 of AS were calculated after fitting the data to a non-linear regression program (GraFit).

[3] = biological target: T3, Agrobacterium tumefaciens anthranilate synthase V48Y mutant, SEQ ID NO: 59 (Agrobacterium fabrum, UniProt A9CI26, V48Y); assay: Anthranilate synthase assay, V48Y mutant
T3 construct: no tag mentioned
Description: as §2, §3
as §1, with “The column was washed with 30 ml of the purification buffer and the enzyme was eluted with 30 ml of 50 mM NaCl in the same buffer. Fractions containing high AS activity were pooled and precipitated by 65% ammonium sulfate saturation and isolated and desalted as above. Fractions containing the enzyme were pooled and stored at −80° C.” left out
as §4

[4] = biological target: T4, Agrobacterium tumefaciens anthranilate synthase S50K mutant, SEQ ID NO: 69 (Agrobacterium fabrum, UniProt A9CI26, S50K); assay: Anthranilate synthase assay, S50K mutant
T4 construct: no tag mentioned
Description: as §2, §3
as §1, with “The column was washed with 30 ml of the purification buffer and the enzyme was eluted with 30 ml of 50 mM NaCl in the same buffer. Fractions containing high AS activity were pooled and precipitated by 65% ammonium sulfate saturation and isolated and desalted as above. Fractions containing the enzyme were pooled and stored at −80° C.” left out
as §4

[5] = biological target: T5, Agrobacterium tumefaciens anthranilate synthase S51F mutant, SEQ ID NO: 60 (Agrobacterium fabrum, UniProt A9CI26, S51F); assay: Anthranilate synthase assay, S51F mutant
T5 construct: no tag mentioned
Description: as §2, §3
as §1, with “The column was washed with 30 ml of the purification buffer and the enzyme was eluted with 30 ml of 50 mM NaCl in the same buffer. Fractions containing high AS activity were pooled and precipitated by 65% ammonium sulfate saturation and isolated and desalted as above. Fractions containing the enzyme were pooled and stored at −80° C.” left out
as §4

[6] = biological target: T6, Agrobacterium tumefaciens anthranilate synthase S51C mutant, SEQ ID NO: 61 (Agrobacterium fabrum, UniProt A9CI26, S51C); assay: Anthranilate synthase assay, S51C mutant
T6 construct: no tag mentioned
Description: as §2, §3
as §1, with “The column was washed with 30 ml of the purification buffer and the enzyme was eluted with 30 ml of 50 mM NaCl in the same buffer. Fractions containing high AS activity were pooled and precipitated by 65% ammonium sulfate saturation and isolated and desalted as above. Fractions containing the enzyme were pooled and stored at −80° C.” left out
as §4

[7] = biological target: T7, Agrobacterium tumefaciens anthranilate synthase N52F mutant, SEQ ID NO: 62 (Agrobacterium fabrum, UniProt A9CI26, N52F); assay: Anthranilate synthase assay, N52F mutant
T7 construct: no tag mentioned
Description: as §2, §3
as §1, with “The column was washed with 30 ml of the purification buffer and the enzyme was eluted with 30 ml of 50 mM NaCl in the same buffer. Fractions containing high AS activity were pooled and precipitated by 65% ammonium sulfate saturation and isolated and desalted as above. Fractions containing the enzyme were pooled and stored at −80° C.” left out
as §4

[8] = biological target: T8, Agrobacterium tumefaciens anthranilate synthase P293A mutant, SEQ ID NO: 63 (Agrobacterium fabrum, UniProt A9CI26, P293A); assay: Anthranilate synthase assay, P293A mutant
T8 construct: no tag mentioned
Description: as §2, §3
as §1, with “The column was washed with 30 ml of the purification buffer and the enzyme was eluted with 30 ml of 50 mM NaCl in the same buffer. Fractions containing high AS activity were pooled and precipitated by 65% ammonium sulfate saturation and isolated and desalted as above. Fractions containing the enzyme were pooled and stored at −80° C.” left out
as §4

[9] = biological target: T9, Agrobacterium tumefaciens anthranilate synthase P293G mutant, SEQ ID NO: 64 (Agrobacterium fabrum, UniProt A9CI26, P293G); assay: Anthranilate synthase assay, P293G mutant
T9 construct: no tag mentioned
Description: as §2, §3
as §1, with “The column was washed with 30 ml of the purification buffer and the enzyme was eluted with 30 ml of 50 mM NaCl in the same buffer. Fractions containing high AS activity were pooled and precipitated by 65% ammonium sulfate saturation and isolated and desalted as above. Fractions containing the enzyme were pooled and stored at −80° C.” left out
as §4

[10] = pH 7.0, 200 μM chorismate, 0.1-2 mM L-glutamine, read-out: Km for glutamine (Km^Gln)
[11] = pH 7.0, 10 mM L-glutamine, 2.5-100 μM chorismate, read-out: Km for chorismate (Km^Cho)

NC(=O)CC[C@H](N)C(=O)O [glutamine, L-glutamine]
Km [1, 10]: 110 µM | Km [2, 10]: 80 µM | Km [3, 10]: 100 µM | Km [4, 10]: 10 µM | Km [5, 10]: 60 µM | Km [6, 10]: 80 µM | Km [7, 10]: 40 µM | Km [8, 10]: 160 µM | Km [9, 10]: 70 µM

C=C(O[C@@H]1C=C(C(=O)O)C=C[C@H]1O)C(=O)O [chorismate]
kcat ([1]; pH 7.0): 0.43 s⁻¹ | kcat/Km^Cho ([1]; pH 7.0): 53700 M⁻¹ s⁻¹ | Km [1, 11]: 8 µM | kcat ([2]; pH 7.0): 0.24 s⁻¹ | kcat/Km^Cho ([2]; pH 7.0): 53300 M⁻¹ s⁻¹ | Km [2, 11]: 4.5 µM | kcat ([3]; pH 7.0): 0.18 s⁻¹ | kcat/Km^Cho ([3]; pH 7.0): 42800 M⁻¹ s⁻¹ | Km [3, 11]: 4.2 µM | kcat ([4]; pH 7.0): 0.13 s⁻¹ | kcat/Km^Cho ([4]; pH 7.0): 10000 M⁻¹ s⁻¹ | Km [4, 11]: 13 µM | kcat ([5]; pH 7.0): 0.08 s⁻¹ | kcat/Km^Cho ([5]; pH 7.0): 8000 M⁻¹ s⁻¹ | Km [5, 11]: 10 µM | kcat ([6]; pH 7.0): 0.15 s⁻¹ | kcat/Km^Cho ([6]; pH 7.0): 53600 M⁻¹ s⁻¹ | Km [6, 11]: 2.8 µM | kcat ([7]; pH 7.0): 0.21 s⁻¹ | kcat/Km^Cho ([7]; pH 7.0): 38200 M⁻¹ s⁻¹ | Km [7, 11]: 5.5 µM | kcat ([8]; pH 7.0): 0.35 s⁻¹ | kcat/Km^Cho ([8]; pH 7.0): 14600 M⁻¹ s⁻¹ | Km [8, 11]: 24 µM | kcat ([9]; pH 7.0): 0.48 s⁻¹ | kcat/Km^Cho ([9]; pH 7.0): 14500 M⁻¹ s⁻¹ | Km [9, 11]: 33 µM

From patent US8158851B2, “Transgenic high tryptophan plants” (Monsanto Technology LLC, priority 2002, dated 2012)
